Experimental data as given in PubChem BioAssay AID1996.
≈ marks a conversion by molar mass, not a printed value.

Conditions: buffer; pH 7.4; 200.0 µM

Structure (SMILES)	solubility kinetic [µg/mL]
Cc1ccc(C(=O)O/N=C(\N)c2ccccn2)cc1Cl	< 0.2
O=C1Nc2ccccc2C(c2ccccc2)=NC1O (stereo unspecified)	> 37.8
N#Cc1ccc(COC(=O)c2ccccn2)cc1	30 (≈ 126 µM)
CCc1ccc(NC(=O)COC(=O)/C=C/c2ccco2)cc1	4.8 (≈ 16 µM)
CCN1CCCC1CNC(=O)C(=O)NCc1ccccc1 (stereo unspecified)	> 43.4
COc1ccc2[nH]cc(CCNC(C)=O)c2c1	> 34.8
Cc1ccc(CNC(=O)CNC(=O)c2ccc(C(C)(C)C)cc2)n1C	> 51.2
Cc1ccc(SCC(=O)NC(=O)NC(C)C)c(C)c1	20 (≈ 71.3 µM)
N#Cc1cncc(C#Cc2ccccc2)c1	5.6 (≈ 27.4 µM)
COc1cn(-c2ccccc2)nc1C(=O)NCc1ccccc1	> 46.1
COc1ccc(CNc2ccc(C)c(C)c2)cc1	1.5 (≈ 6.22 µM)
CCCNC(=O)c1ccc(COc2ccc(C)cc2)o1	> 41
CC(C)C(=O)NCc1cc(-c2ccccc2)no1	32.5 (≈ 133 µM)
COC(=O)c1c(C)[nH]c(C=O)c1-c1ccccc1	> 36.5
O=C(NCCCCc1ccccc1)c1ccccc1Cl	> 43.2
C=Cc1ccc(C(=O)NC2CCCN(Cc3ccccc3F)C2)cc1 (stereo unspecified)	< 0.4
CSc1ccc(Cl)c(C(=O)N2CCOc3ccccc32)c1	13.5 (≈ 42.2 µM)
CCc1nnc(NC(=O)CN2C(=O)NC3(CC(C)CC(C)(C)C3)C2=O)s1 (stereo unspecified)	> 56.9
Cc1cccc(CSc2nc3c(c(-c4cccs4)c2C#N)CN(C)CC3)c1	5.8 (≈ 14.8 µM)
CCc1nc2sc3c(c2c(=S)[nH]1)CC(C)(C)OC3	1.9 (≈ 6.78 µM)
CCc1ccc(CN2CCN(c3ncccn3)CC2)cc1	29.9 (≈ 106 µM)
N#Cc1cccc(NC(=O)COC(=O)c2ccc[n+]([O-])c2)c1	> 44.6
CC(=O)Nc1ccc(NC(=O)C2C3CCC(C3)C2C(=O)O)cc1 (stereo unspecified)	> 47.5
Cn1ncc(C(=O)N=S(C)(=O)c2ccccc2)c1[N+](=O)[O-] (stereo unspecified)	> 46.2
O=C(NC1CC2CCC1C2)c1ccco1 (stereo unspecified)	26.3 (≈ 128 µM)

Structure (SMILES)	solubility kinetic [µg/mL]
O=C(NCCc1cnc[nH]1)c1ccc(-c2ccccc2)cc1	28.2 (≈ 96.8 µM)
CN1CCCC(OC(=O)c2ccc(C(C)(C)C)cc2)C1.Cl (stereo unspecified)	> 46.8
CCOC(=O)CC1C(=O)NCCN1C(=O)c1cccc(OC)c1 (stereo unspecified)	44.4 (≈ 139 µM)
COc1cccc(NC(=S)N(CCC(C)C)C(C)c2ccncc2)c1 (stereo unspecified)	44.4 (≈ 124 µM)
Cc1ccc(S(=O)(=O)N2CC(O)CC2C(=O)OCC(=O)Nc2ccc([N+](=O)[O-])cc2C(F)(F)F)cc1C (stereo unspecified)	76.5 (≈ 140 µM)
N#Cc1ccccc1-c1ccccc1C(=O)N1CCCCC1	> 43.6
CN(C)c1nc(-c2cccs2)cc(C(F)(F)F)c1C#N	0.3 (≈ 1.01 µM)
COc1cc(C2NC(=O)c3ccccc3O2)ccc1OC(C)C (stereo unspecified)	5.9 (≈ 18.8 µM)
CCCOc1ccc(N/C=C/C(=O)c2ccc(OC)c(OC)c2)cc1	< 0.7
C/C(=C\C(=O)c1sccc1Cl)N(C)C	> 34.5
O=C(Nc1cccc(C(F)(F)F)c1)OCc1ccncc1	12.4 (≈ 41.9 µM)
Clc1ccccc1N1CCN(Cc2ccco2)CC1	30.3 (≈ 109 µM)
O=C(Cn1c(CO)nc2ccccc21)NCCc1ccc(F)cc1	36.7 (≈ 112 µM)
COc1ccc(NC(=O)Nc2cccnc2)cc1	> 36.5
CSc1ncccc1C(=O)Nc1ccc(OC(F)(F)F)cc1	3.8 (≈ 11.6 µM)
CC(C)N(Cc1ccccc1)C(=O)COC(=O)C1CCCCC1	46.6 (≈ 147 µM)
CC(Cc1cccs1)NCc1ccccc1 (stereo unspecified)	22.3 (≈ 96.4 µM)
CCCC(CCC(=O)Nc1cccc([N+](=O)[O-])c1)C(=O)O (stereo unspecified)	> 44.1
O=C(CSc1nc(O)c(Cc2ccccc2)c(=O)[nH]1)N1CCOCC1	40.2 (≈ 111 µM)
O=c1[nH]c(O)c(C=Nc2ccc(F)c(Cl)c2)c(=O)[nH]1	14 (≈ 49.4 µM)
OCCC1CN(C/C=C/c2ccco2)CCN1Cc1ccccc1 (stereo unspecified)	40 (≈ 123 µM)
Cc1cccc(N2CC(C(=O)Nc3nccs3)CC2=O)c1C (stereo unspecified)	42 (≈ 133 µM)
Cn1c(=O)n(Cc2ccccc2Cl)c2ccccc21	> 40.9
CC(=O)Nc1ccc(C(=O)OCc2ccccc2Br)cc1	< 0.7
CC(=O)NCCc1cnc[nH]1	> 23

Structure (SMILES)	solubility kinetic [µg/mL]
CC(C)(Oc1ccc(Cl)cc1)C(=O)N1CCC(C(N)=O)CC1	48.7 (≈ 150 µM)
C=CCNC(=O)N1CCCC(N2CCN(c3ccccc3OC)CC2)C1 (stereo unspecified)	> 53.8
COc1ccc2nc(NC(=O)c3ccccc3[N+](=O)[O-])sc2c1	3 (≈ 9.11 µM)
CCN(CCNC(=O)c1ccc(C#N)cc1)c1cccc(C)c1	> 46.1
Cc1cc(N/C=C/C(=O)c2cccs2)ccc1F	1.7 (≈ 6.51 µM)
COc1ccc(CC(=O)Nc2ccccc2N2CCCC2)cc1	41.6 (≈ 134 µM)
CN(C)S(=O)(=O)c1ccc(C(=O)OCC2CCCO2)cc1 (stereo unspecified)	> 47
COc1cc2ncnc(NCc3ccc(C)o3)c2cc1OC	35 (≈ 117 µM)
CCOc1nc(C)ccc1-c1noc(-c2cccnc2)n1	11 (≈ 39 µM)
CN(C)C(=O)c1c2c(nc3ccccc13)CCCC2	32.2 (≈ 127 µM)
CC(=O)N1c2ccccc2Sc2ccccc21	26.4 (≈ 109 µM)
COP(=O)(OC)C(NC(=O)Nc1ccccc1)c1ccccc1 (stereo unspecified)	43.9 (≈ 131 µM)
O=C(c1cccc(Br)c1)N1CCN(c2ccccn2)CC1	> 51.9
NC(=O)CCC(NC(=O)c1ccc(Cl)cc1)C(=O)O (stereo unspecified)	> 42.7
Cc1cccc(C(=O)NCCc2ccccc2)c1	> 35.9
CC(C)NC(=O)CN1CCC(c2nc3ccccc3[nH]2)CC1	> 45.1
CC1Cn2c(nc3sc4c(c3c2=O)CC(C)(C)OC4)N1CCO (stereo unspecified)	> 50.3
Cc1nc(S(=O)(=O)Nc2ccc3c(c2)OCCO3)cn1C	13.1 (≈ 42.3 µM)
COc1ccc(NC(=O)CCCc2ccccc2)c(OC)c1	36.4 (≈ 122 µM)
COc1ccc(C2(c3ccc(OC)cc3)NC(=O)N(CC(=O)NC3CCS(=O)(=O)C3)C2=O)cc1 (stereo unspecified)	> 73.1
O=C(Cc1ccc(Br)cc1)NCc1ccccc1	4.1 (≈ 13.5 µM)
CN(C(=O)COc1ccc(Cl)cc1)C1(C)CCS(=O)(=O)C1 (stereo unspecified)	> 49.8
Cn1c(=O)c2c(=O)cc(N)[nH]c2n(C)c1=O	12.1 (≈ 54.5 µM)
CC(=O)c1ccc(NC(=O)Nc2ccc3c(c2)nc(C)n3C)cc1	4.1 (≈ 12.7 µM)
COc1ccc(NC(=O)C(Cc2ccccc2)n2cccc2)cc1 (stereo unspecified)	26.5 (≈ 82.7 µM)

Structure (SMILES)	solubility kinetic [µg/mL]
Cc1ccc2nc(-c3ccc4c(c3)OCCO4)cn2c1	35.1 (≈ 132 µM)
CCNC(=O)NC(=O)C(C)OC(=O)c1ccc(SC)cc1OC (stereo unspecified)	> 51.1
COc1cc(OC)c(CN2CCCN(C)CC2)cc1Br	44.9 (≈ 131 µM)
CCn1cc(C(=S)N2CCC(C(N)=O)CC2)c2ccccc21	38.7 (≈ 123 µM)
CC12CCC(C/C1=N\OC(=O)c1c(F)cccc1F)C2(C)C (stereo unspecified)	21.5 (≈ 70 µM)
Cc1ccc(NC(=O)Cc2ccc(-c3ccccc3)cc2)nc1	5.7 (≈ 18.9 µM)
O=C(O)C1CCCCC1C(=O)NC1C2CC3CC(C2)CC1C3 (stereo unspecified)	42.4 (≈ 139 µM)
O=c1c2ccccc2nc2n1CCCN2	> 30.2
CCN1CCN(Cc2cc3c(cc2[N+](=O)[O-])OCO3)CC1	41.1 (≈ 140 µM)
CCOc1ccccc1CNC(=O)CNC(=O)c1cccs1	> 47.8
O=C(O)CCN1C(=O)c2ccc(NC(=O)c3ccco3)cc2C1=O	> 49.2
CCCCNc1cc(C(=O)O)cc(S(N)(=O)=O)c1Oc1ccccc1	> 54.7
Cc1ccc(C(=O)COc2ncnc3cc(Cl)ccc23)cc1	0.4 (≈ 1.28 µM)
CCn1c2ccccc2c2cc(NC(=O)C(=O)N3CCOCC3)ccc21	10.1 (≈ 28.7 µM)
COc1cccc(NC(=O)CNC(=O)c2ccc(C)o2)c1	> 43.2
Cc1cc(Nc2ccc(Cl)cc2)nc(-c2ccccc2O)n1	0.2 (≈ 0.641 µM)
CCCCCNC(=O)C1c2ccccc2Oc2ccccc21	< 0.6
CN(C)c1cccc2c1c(NS(=O)(=O)c1cn(C)cn1)nn2C	> 50.2
O=C(NCCCN1CCOCC1)C1CC(=O)N(c2ccccc2)C1 (stereo unspecified)	> 49.7
O=C(COC(=O)c1c(Cl)cccc1Cl)NC1CCCCCCC1	8.2 (≈ 22.9 µM)
O=C(c1ccccc1F)n1c2c(c3ccccc31)CCCC2	0.8 (≈ 2.73 µM)
Cn1c(C2=C(O)CN(Cc3ccccc3)C2=N)nc2ccccc21	> 47.8
CCOc1cc(C)c(S(=O)(=O)NCCCn2ccnc2)cc1C	41.2 (≈ 122 µM)
CCOCCCNC(=S)N1CCC(C(=O)c2ccc(C)cc2)CC1	51.8 (≈ 149 µM)
COn1c(=O)c(-c2ccc(F)cc2)[n+]([O-])c2ccccc21	> 42.9

Structure (SMILES)	solubility kinetic [µg/mL]
O=C(c1cccc([N+](=O)[O-])c1)N1CCN(C/C=C/c2ccccc2)CC1	52 (≈ 148 µM)
Cc1cc(=O)oc2c(C)c(OCC(=O)NCC3CCC(C(=O)O)CC3)ccc12 (stereo unspecified)	> 58.1
Cc1ccc(NC(=O)CSc2nccn2Cc2ccco2)c(C)c1	46.8 (≈ 137 µM)
Cc1csc2c(N3CCCCC3)ncnc12	> 35
N#CC1(NC(=O)COC(=O)c2nccnc2N)CCCCC1	> 45.5
CC(=O)Nc1ccc(NC(=O)C(C)OC(=O)c2ccc(S(=O)(=O)N3CCCCC3)cc2)cc1 (stereo unspecified)	6.4 (≈ 13.5 µM)
COc1ccccc1NC(=S)Nc1cccc2cnccc12	40.9 (≈ 132 µM)
Cc1onc(-c2ccccc2)c1C(=O)N1CCCC(C(F)(F)F)C1 (stereo unspecified)	42.7 (≈ 126 µM)
CCOC(=O)c1cnc(Cc2ccccc2)[nH]c1=O	37.3 (≈ 144 µM)
CCC(CC)C(=O)NCc1cccnc1	> 30.9
O=C(COC(=O)c1cc[n+]([O-])cc1)Nc1ccc(Cl)c(C(F)(F)F)c1	> 56.2
Cc1ccc(S(=O)(=O)N2CCOCC2)cc1C(=O)c1nccn1C	> 52.4
NC(=O)Cn1c(=O)n(Cc2ccccc2)c(=O)c2cccnc21	33.8 (≈ 109 µM)
CCN(CC(=O)NCc1ccccn1)S(=O)(=O)c1ccc(OC)cc1	> 54.5
O=[N+]([O-])c1cc([N+](=O)[O-])c2nonc2c1Nc1ccccc1O	> 47.6
COc1ccccc1C1CCN(C(=O)C2CCCCC2)CC1	38.6 (≈ 128 µM)
CCN(C(=O)COC(=O)CCC(=O)c1cccs1)C1CCCCC1	> 52.7
Cc1cccc(Nc2nnc(SCC(=O)NCC3CCCO3)s2)c1 (stereo unspecified)	> 54.7
CCCCOc1ccc(CC2CCC(=O)NC2=O)cc1 (stereo unspecified)	10.2 (≈ 37 µM)
CN(C)/C=C/C(=O)c1ccc2noc(-c3cccc(F)c3)c2c1	7.3 (≈ 23.5 µM)
CCCC12CN3CC(C)(CN(C1)C3c1ccco1)C2=O (stereo unspecified)	38.9 (≈ 142 µM)
